Reference: patent publication US20200155607A1, “Enriched Cellular Compositions and Therapeutic Use” (Abraham J and Phyllis Katz Cord Blood Foundation, priority 2017, published 2020)

System: human dermal fibroblast
Assay: Fibroblast proliferation by MTT assay
Type: cell-based
Settings: mitomycin c 10 or 25 μg/ml for 30 or 60 min; MTT at 17 hrs
Description: The results from two different studies investigating the effect of mitomycin c on human dermal fibroblast proliferation are shown in FIGS. 5A-5B. Fibroblast cells were plated out in complete media and then treated with mitomycin c (10 μg/ml or 25 μg/ml) for 30 or 60 min. Mitomcyin c was washed out and starvation media was added. Positive controls are 10% FBS and FGF (25 ng/ml). The ODs from the blank wells were subtracted out. Proliferation was measured by MTT assay at 17 hrs.

SMILES: CO[C@@]12[C@H](COC(N)=O)C3=C(C(=O)C(C)=C(N)C3=O)N1C[C@@H]1N[C@@H]12 [Mitomycin c, mitomycin c]
- fibroblast proliferation (MTT): appears to inhibit fibroblast proliferation
